Several values for one entry are separate records, joined by “and”; a condition that tells them apart may be missing. Identical values can stand only once. Positions of bridges follow the written chain, without caps; N, C: chain ends. Non-standard residues stand in square brackets, D forms with d. Residues, ends and D or L forms follow the SMILES beside them. Cha = N[C@@H](CC1CCCCC1)C(=O)O
Columns and labels:
[1] = tested on: denuded aortic rings, GC A receptor; test: Relaxation of noradrenaline constricted endothelium-denuded aortic rings (Example 11); design: species or system rat; details: GC-A mediated
Protocol: Male Sprague Dawley rats were killed and the descending thoracic aorta rapidly removed and flushed with physiological solution. After being cleared of adhering fat and connective tissue, 5 mm rings were mounted under 10 g resting tension, between two stainless steel hooks, in organ baths (37° C.) containing carbogenated (95% O2 and 5% CO2) physiological salt solution of the following composition (mM): NaCl, 118.4; NaHCO3, 25; glucose, 11; KCl, 4.7; MgSO4, 1.2; KH2PO4, 1.2 and CaCl2, 2.5. The lower hook was attached to a tissue holder and the upper hook to a force displacement transducer (Grass FTO3). Where indicated endothelial cells were removed by gentle rubbing of the intimal surface with a wire. To confirm the presence or absence of endothelial cells, tissues were precontracted with a sub-maximal concentration of phenylephrine (0.3 μM) and the response to acetylcholine (ACh, 10 μM) observed. Ach-induced relaxation greater than 80% of maximum indicated the presence of endothelium; whereas Ach-induced relaxation less than 10% indicated the absence of endothelium. Ring preparations under resting tension were conditioned by two contraction/relaxation cycles with 40 mM KCl, contracted by a third application of 40 mM KCl and then relaxed with different doses of the venom peptides. Responses were expressed as a percentage relaxation of the precontraction by KCl.
In addition to the peptides tested in example 3, a series of 13 analogs corresponding to the 2a, 2b and 2c grouping of peptides were examined for their ability to dilate noradrenaline constricted aortic rings. The degree of constriction was expressed as a percentage of the KCl induced constriction. The aortic rings were prepared in a manner similar to the method described in example 3. […]. In each case there were at least 3 separate aortic rings tested per peptide and all were denuded of endothelium to ensure responses were confined to the GC A receptor.

[2] = target: T1, Natriuretic Peptide Receptor-A (NPR-A) signaling in MDCK cells (Canis lupus familiaris, UniProt A0A8I3MHU3); format: cell-based, canine; details: stimulation of cGMP accumulation in MDCK cells; for EC50: read-out: EC50 (M) ± Standard Error
T1 sequence (A0A8I3MHU3 32-1060): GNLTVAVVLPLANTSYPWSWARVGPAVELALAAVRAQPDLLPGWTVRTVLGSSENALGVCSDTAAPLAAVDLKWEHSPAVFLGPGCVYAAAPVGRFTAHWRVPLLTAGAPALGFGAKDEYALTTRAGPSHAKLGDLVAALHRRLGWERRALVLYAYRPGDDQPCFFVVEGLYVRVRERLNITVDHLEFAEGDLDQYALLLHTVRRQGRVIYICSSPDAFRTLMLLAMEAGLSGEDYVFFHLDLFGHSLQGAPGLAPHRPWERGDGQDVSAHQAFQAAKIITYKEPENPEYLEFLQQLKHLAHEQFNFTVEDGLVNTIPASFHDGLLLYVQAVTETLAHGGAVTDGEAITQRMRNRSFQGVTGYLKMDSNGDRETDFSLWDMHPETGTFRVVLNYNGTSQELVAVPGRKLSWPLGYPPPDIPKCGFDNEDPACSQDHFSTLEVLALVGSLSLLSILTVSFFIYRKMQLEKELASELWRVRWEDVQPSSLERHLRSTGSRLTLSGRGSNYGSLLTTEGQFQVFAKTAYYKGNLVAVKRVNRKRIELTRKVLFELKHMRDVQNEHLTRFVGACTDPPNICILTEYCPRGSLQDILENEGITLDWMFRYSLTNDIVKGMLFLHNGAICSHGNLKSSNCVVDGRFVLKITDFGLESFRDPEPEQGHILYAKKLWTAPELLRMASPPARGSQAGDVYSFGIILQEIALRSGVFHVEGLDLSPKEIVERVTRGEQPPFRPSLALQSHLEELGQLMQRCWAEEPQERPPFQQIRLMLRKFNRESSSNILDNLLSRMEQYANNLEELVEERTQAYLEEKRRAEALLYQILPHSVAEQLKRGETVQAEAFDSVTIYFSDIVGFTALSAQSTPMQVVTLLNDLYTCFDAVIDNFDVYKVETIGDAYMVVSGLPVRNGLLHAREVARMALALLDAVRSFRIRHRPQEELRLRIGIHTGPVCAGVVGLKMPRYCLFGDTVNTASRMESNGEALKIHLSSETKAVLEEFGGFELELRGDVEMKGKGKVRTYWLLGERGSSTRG

conscious rabbits = test: Blood pressure and heart rate in conscious rabbits, intravenous infusion dose-response (Example 8); details: for recovery of MAP, in words: 2 hours after infusion; for MAP at final dose / Recovery (MAP) / Recovery Delta SED (MAP) / Treatment Effect, change of mean blood pressure during the infusion: Table 10B; for Recovery (MAP) / Recovery Delta SED (MAP): after a 2 hour recovery period; for Treatment Effect, change of mean blood pressure during the infusion: final dose, groups 2B and 2C

Structure (SMILES)	Mean relaxation SEM of denuded aortic rings expressed as % of KCl response [1]	−Log10 EC50 (pEC50) ± Standard Error [2]	EC50 [2] [M]	recovery of MAP, in words (conscious rabbits)	MAP at final dose (conscious rabbits) [mm Hg]	Recovery (MAP) (conscious rabbits) [mm Hg]	Recovery Delta SED (MAP) (conscious rabbits) [mm Hg]	Treatment Effect, change of mean blood pressure during the infusion (conscious rabbits) [mm Hg]
CC[C@H](C)[C@H](NC(=O)[C@H](CCCCN)NC(=O)[C@H](CO)NC(=O)[C@H](CC(=O)O)NC(=O)[C@@H](N)CO)C(=O)NCC(=O)N[C@@H](CC(N)=O)C(=O)NCC(=O)N[C@H]1CSSC[C@@H](C(=O)N[C@@H](CC(N)=O)C(=O)N[C@@H](CCCNC(=N)N)C(=O)N[C@H](C(=O)N[C@@H](CCSC)C(=O)N[C@@H](CCC(N)=O)C(=O)N[C@@H](CC(N)=O)C(=O)N2CCC[C@H]2C(=O)N2CCC[C@H]2C(=O)N[C@@H](CCCCN)C(=O)N[C@@H](CCCCN)C(=O)N[C@@H](Cc2ccccc2)C(=O)N[C@@H](CO)C(=O)NCC(=O)N[C@@H](CCC(=O)O)C(=O)O)[C@@H](C)CC)NC(=O)CNC(=O)[C@H](CC(C)C)NC(=O)CNC(=O)[C@H](CO)NC(=O)[C@H](C(C)C)NC(=O)[C@H](CO)NC(=O)CNC(=O)[C@H]([C@@H](C)CC)NC(=O)[C@H](CCCNC(=N)N)NC(=O)[C@H](CC(=O)O)NC(=O)[C@H](CC(C)C)NC(=O)[C@@H]2CCCN2C(=O)[C@H](Cc2ccccc2)NC(=O)CNC(=O)[C@H](CC2CCCCC2)NC1=O [TNPc Cha-10] (H-SDSKIGNGC[Cha]GFPLDRIGSVSGLGCNRIMQNPPKKFSGE-OH; disulfide 9-25; N-terminus assumed)	64.2 ± 4.2%	7.84	1.44e-08	partially recovered	67.3	76.5	9.1 ± 3.9	−10.8
CC[C@H](C)[C@@H]1NC(=O)[C@H](CCCNC(=N)N)NC(=O)[C@H](CC(=O)O)NC(=O)[C@H](CC(C)C)NC(=O)[C@@H]2CCCN2C(=O)[C@H](Cc2ccccc2)NC(=O)CNC(=O)[C@H](Cc2ccccc2)NC(=O)[C@@H](NC(=O)[C@@H]2CCCN2C(=O)[C@H](CC(=O)O)NC(=O)[C@H](Cc2ccc(O)cc2)NC(=O)[C@H](CCCCN)NC(=O)[C@@H](NC(=O)[C@@H](N)CCC(=O)O)C(C)C)CSSC[C@@H](C(=O)N[C@@H](CC(N)=O)C(=O)N[C@@H](CCCNC(=N)N)C(=O)N[C@H](C(=O)N[C@@H](CCSC)C(=O)N[C@@H](CCC(N)=O)C(=O)N[C@@H](CC(N)=O)C(=O)N2CCC[C@H]2C(=O)N2CCC[C@H]2C(=O)N[C@@H](CCCCN)C(=O)N[C@@H](CCCCN)C(=O)N[C@@H](Cc2ccccc2)C(=O)N[C@@H](CO)C(=O)NCC(=O)N[C@@H](CCC(=O)O)C(=O)O)[C@@H](C)CC)NC(=O)CNC(=O)[C@H](CC(C)C)NC(=O)CNC(=O)[C@H](CO)NC(=O)[C@H](C(C)C)NC(=O)[C@H](CO)NC(=O)CNC1=O [TNPc DTT] (H-EVKYDPCFGFPLDRIGSVSGLGCNRIMQNPPKKFSGE-OH; disulfide 7-23; N-terminus assumed)	58.9 ± 6.7%	7.723 ± 0.1425	2.12e-08	partially recovered	58.6	70.3	11.7 ± 5.2	−12.4
CC[C@H](C)[C@H](NC(=O)[C@H](CCCCN)NC(=O)[C@H](CO)NC(=O)[C@H](CC(=O)O)NC(=O)[C@@H](N)CO)C(=O)NCC(=O)N[C@@H](CCCCN)C(=O)NCC(=O)N[C@H]1CSSC[C@@H](C(=O)N[C@@H](CC(N)=O)C(=O)N[C@@H](CCCNC(=N)N)C(=O)N[C@H](C(=O)N[C@@H](CCSC)C(=O)N[C@@H](CCC(N)=O)C(=O)N[C@@H](CC(N)=O)C(=O)N2CCC[C@H]2C(=O)N2CCC[C@H]2C(=O)N[C@@H](CCCCN)C(=O)N[C@@H](CCCCN)C(=O)N[C@@H](Cc2ccccc2)C(=O)N[C@@H](CO)C(=O)NCC(=O)N[C@@H](CCC(=O)O)C(=O)O)[C@@H](C)CC)NC(=O)CNC(=O)[C@H](CC(C)C)NC(=O)CNC(=O)[C@H](CO)NC(=O)[C@H](C(C)C)NC(=O)[C@H](CO)NC(=O)CNC(=O)[C@H]([C@@H](C)CC)NC(=O)[C@H](CCCNC(=N)N)NC(=O)[C@H](CC(=O)O)NC(=O)[C@H](CC(C)C)NC(=O)[C@@H]2CCCN2C(=O)[C@H](Cc2ccccc2)NC(=O)CNC(=O)[C@H](Cc2ccccc2)NC1=O [TNPc K7] (H-SDSKIGKGCFGFPLDRIGSVSGLGCNRIMQNPPKKFSGE-OH; disulfide 9-25; N-terminus assumed)	50% and 46.1 ± 13.5%	7.443 ± 0.2700	5.28e-08	did not recover after 2 hours	59.0	62.4	3.4 ± 1.9	−14.1
